From the supplement of paper PMC10307832

Columns and labels:
Assay in all cases: relative viability (nuclei count vs DMSO), 5 days (fraction); higher = more cells survive
Tosedostat = compound: CC(C)C[C@@H](C(=O)N[C@H](C(=O)OC1CCCC1)c1ccccc1)[C@H](O)C(=O)NO [Tosedostat]
How it was run: (§1)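 Hoechst staining, done together with fixation and permeabilisation, marked nuclei for 4× imaging and MetaXpress counting. This followed 5 days without medium change after lung cancer cell lines, kept overnight at 37 °C in 1536-well plates, were pinned with five library-drug doses (not always all listed) spaced by √10 on vehicle-anchored plates. Viability is the ratio of treated-well to vehicle-well nuclei, expressed as a median across plates. Plates passed only at control CV below 25% with at least one doubling.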

[1] = compound: CC1=NN=C(O1)C2=NN=C(C=C2)N3CCC(CC3)OC4=C(C=CC(=C4)F)Cl
How it was run: as §1

[2] = compound: CC1=NN=C(O1)C2=NN=C(C=C2)N3CCC(CC3)OC4=C(C=CC(=C4)F)Cl + CC1(C)CCC(c2ccc(Cl)cc2)=C(CN2CCN(c3ccc(C(=O)NS(=O)(=O)c4ccc(N[C@H](CCN5CCOCC5)CSc5ccccc5)c(S(=O)(=O)C(F)(F)F)c4)cc3)CC2)C1 [Navitoclax] (partner 0.5 µM)
How it was run: (§2)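 Lung cancer cell lines in 1536-well plates were dosed by pin tool the day after seeding, either with one drug alone or with a fixed anchor-drug dose plus five library-drug doses (not always all listed) in √10 steps. After 5 days, cells were fixed and their nuclei stained in one step (final 0.05% Triton X-100, 1% formaldehyde, 1 ug/ml Hoechst), then counted on 4× images. Relative viability is the nuclei count in treated wells divided by that in vehicle wells. Values are medians of duplicate plates.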

Tosedostat + Trametinib = compound: CC(C)C[C@@H](C(=O)N[C@H](C(=O)OC1CCCC1)c1ccccc1)[C@H](O)C(=O)NO [Tosedostat] + CC(=O)Nc1cccc(-n2c(=O)n(C3CC3)c(=O)c3c(Nc4ccc(I)cc4F)n(C)c(=O)c(C)c32)c1 [Trametinib] (partner 0.02 µM)
How it was run: as §2

## NCI-H1666
Tosedostat; 0.02 µM
  relative viability: 1
Tosedostat; 0.06325 µM
  relative viability: 0.933
Tosedostat; 0.2 µM
  relative viability: 1.02
Tosedostat; 0.6325 µM
  relative viability: 1.08
Tosedostat; 2 µM
  relative viability: 0.999
[1]; 0.253 µM
  relative viability: 0.707
[1]; 0.8 µM
  relative viability: 0.844
[1]; 2.53 µM
  relative viability: 0.835
[1]; 8 µM
  relative viability: 0.782
[2]; first compound 0.253 µM
  relative viability: 0.706
[2]; first compound 0.8 µM
  relative viability: 0.667
[2]; first compound 2.53 µM
  relative viability: 0.723
[2]; first compound 8 µM
  relative viability: 0.698
Tosedostat + Trametinib; first compound 0.02 µM
  relative viability: 0.962
Tosedostat + Trametinib; first compound 0.06325 µM
  relative viability: 0.856
Tosedostat + Trametinib; first compound 0.2 µM
  relative viability: 0.929
Tosedostat + Trametinib; first compound 0.6325 µM
  relative viability: 0.91
Tosedostat + Trametinib; first compound 2 µM
  relative viability: 0.851

## NCI-H322M
Tosedostat; 0.02 µM
  relative viability: 0.898
Tosedostat; 0.06325 µM
  relative viability: 0.964
Tosedostat; 0.2 µM
  relative viability: 0.877
Tosedostat; 0.6325 µM
  relative viability: 0.762
Tosedostat; 2 µM
  relative viability: 0.834
[1]; 0.253 µM
  relative viability: 0.929
[1]; 0.8 µM
  relative viability: 0.881
[1]; 2.53 µM
  relative viability: 1.02
[1]; 8 µM
  relative viability: 0.819
[2]; first compound 0.253 µM
  relative viability: 1.17
[2]; first compound 0.8 µM
  relative viability: 1.11
[2]; first compound 2.53 µM
  relative viability: 1.11
[2]; first compound 8 µM
  relative viability: 1
Tosedostat + Trametinib; first compound 0.02 µM
  relative viability: 0.548
Tosedostat + Trametinib; first compound 0.06325 µM
  relative viability: 0.501
Tosedostat + Trametinib; first compound 0.2 µM
  relative viability: 0.452
Tosedostat + Trametinib; first compound 0.6325 µM
  relative viability: 0.456
Tosedostat + Trametinib; first compound 2 µM
  relative viability: 0.467

## LCLC-97TM1
Tosedostat; 0.02 µM
  relative viability: 1.12
Tosedostat; 0.06325 µM
  relative viability: 0.973
Tosedostat; 0.2 µM
  relative viability: 0.876
Tosedostat; 0.6325 µM
  relative viability: 0.83
Tosedostat; 2 µM
  relative viability: 0.621
[1]; 0.253 µM
  relative viability: 0.795
[1]; 2.53 µM
  relative viability: 0.564
[1]; 8 µM
  relative viability: 0.548
[2]; first compound 0.253 µM
  relative viability: 0.623
[2]; first compound 2.53 µM
  relative viability: 0.67
[2]; first compound 8 µM
  relative viability: 0.447
Tosedostat + Trametinib; first compound 0.02 µM
  relative viability: 0.19
Tosedostat + Trametinib; first compound 0.06325 µM
  relative viability: 0.202
Tosedostat + Trametinib; first compound 0.2 µM
  relative viability: 0.232
Tosedostat + Trametinib; first compound 0.6325 µM
  relative viability: 0.177
Tosedostat + Trametinib; first compound 2 µM
  relative viability: 0.161

## EPLC-272H
Tosedostat; 0.02 µM
  relative viability: 1.06
Tosedostat; 0.06325 µM
  relative viability: 0.984
Tosedostat; 0.2 µM
  relative viability: 0.763
Tosedostat; 0.6325 µM
  relative viability: 0.593
Tosedostat; 2 µM
  relative viability: 0.428
[1]; 0.253 µM
  relative viability: 0.987
[1]; 0.8 µM
  relative viability: 0.716
[1]; 2.53 µM
  relative viability: 0.887
[1]; 8 µM
  relative viability: 0.828
[2]; first compound 0.253 µM
  relative viability: 0.935
[2]; first compound 2.53 µM
  relative viability: 1.11
[2]; first compound 8 µM
  relative viability: 1.01
Tosedostat + Trametinib; first compound 0.02 µM
  relative viability: 0.29
Tosedostat + Trametinib; first compound 0.06325 µM
  relative viability: 0.296
Tosedostat + Trametinib; first compound 0.2 µM
  relative viability: 0.305
Tosedostat + Trametinib; first compound 0.6325 µM
  relative viability: 0.324
Tosedostat + Trametinib; first compound 2 µM
  relative viability: 0.25

## NCI-H2023
Tosedostat; 0.02 µM
  relative viability: 1.05
Tosedostat; 0.06325 µM
  relative viability: 0.916
Tosedostat; 0.2 µM
  relative viability: 0.937
Tosedostat; 0.6325 µM
  relative viability: 0.713
Tosedostat; 2 µM
  relative viability: 0.942
[1]; 0.253 µM
  relative viability: 0.513
[1]; 0.8 µM
  relative viability: 0.451
[1]; 2.53 µM
  relative viability: 0.579
[1]; 8 µM
  relative viability: 0.431
[2]; first compound 0.253 µM
  relative viability: 0.486
[2]; first compound 0.8 µM
  relative viability: 0.557
[2]; first compound 2.53 µM
  relative viability: 0.565
[2]; first compound 8 µM
  relative viability: 0.442
Tosedostat + Trametinib; first compound 0.02 µM
  relative viability: 0.607
Tosedostat + Trametinib; first compound 0.06325 µM
  relative viability: 0.496
Tosedostat + Trametinib; first compound 0.2 µM
  relative viability: 0.465
Tosedostat + Trametinib; first compound 0.6325 µM
  relative viability: 0.45
Tosedostat + Trametinib; first compound 2 µM
  relative viability: 0.502

## NCI-H460
Tosedostat; 0.02 µM
  relative viability: 1.02
Tosedostat; 0.06325 µM
  relative viability: 0.994
Tosedostat; 0.2 µM
  relative viability: 0.99
Tosedostat; 0.6325 µM
  relative viability: 0.974
Tosedostat; 2 µM
  relative viability: 0.989
[1]; 0.253 µM
  relative viability: 0.273
[1]; 0.8 µM
  relative viability: 0.306
[1]; 2.53 µM
  relative viability: 0.282
[1]; 8 µM
  relative viability: 0.284
[2]; first compound 0.253 µM
  relative viability: 0.429
[2]; first compound 0.8 µM
  relative viability: 0.42
[2]; first compound 2.53 µM
  relative viability: 0.45
[2]; first compound 8 µM
  relative viability: 0.392
Tosedostat + Trametinib; first compound 0.02 µM
  relative viability: 0.157
Tosedostat + Trametinib; first compound 0.06325 µM
  relative viability: 0.197
Tosedostat + Trametinib; first compound 0.2 µM
  relative viability: 0.204
Tosedostat + Trametinib; first compound 0.6325 µM
  relative viability: 0.181
Tosedostat + Trametinib; first compound 2 µM
  relative viability: 0.217

## NCI-H647
Tosedostat; 0.02 µM
  relative viability: 1.02
Tosedostat; 0.06325 µM
  relative viability: 1.01
Tosedostat; 0.2 µM
  relative viability: 1.02
Tosedostat; 0.6325 µM
  relative viability: 0.977
Tosedostat; 2 µM
  relative viability: 0.883
[1]; 0.253 µM
  relative viability: 0.65
[1]; 0.8 µM
  relative viability: 0.642
[1]; 2.53 µM
  relative viability: 0.66
[1]; 8 µM
  relative viability: 0.413
[2]; first compound 0.253 µM
  relative viability: 0.744
[2]; first compound 0.8 µM
  relative viability: 0.704
[2]; first compound 2.53 µM
  relative viability: 0.821
[2]; first compound 8 µM
  relative viability: 0.679
Tosedostat + Trametinib; first compound 0.02 µM
  relative viability: 0.452
Tosedostat + Trametinib; first compound 0.06325 µM
  relative viability: 0.485
Tosedostat + Trametinib; first compound 0.2 µM
  relative viability: 0.425
Tosedostat + Trametinib; first compound 0.6325 µM
  relative viability: 0.622
Tosedostat + Trametinib; first compound 2 µM
  relative viability: 0.515

## NCI-H2170
Tosedostat; 0.02 µM
  relative viability: 0.997
Tosedostat; 0.06325 µM
  relative viability: 0.963
Tosedostat; 0.2 µM
  relative viability: 1.02
Tosedostat; 0.6325 µM
  relative viability: 0.984
Tosedostat; 2 µM
  relative viability: 0.89
[1]; 0.253 µM
  relative viability: 0.481
[1]; 0.8 µM
  relative viability: 0.52
[1]; 2.53 µM
  relative viability: 0.607
[1]; 8 µM
  relative viability: 0.444
[2]; first compound 0.253 µM
  relative viability: 0.464
[2]; first compound 0.8 µM
  relative viability: 0.421
[2]; first compound 2.53 µM
  relative viability: 0.556
[2]; first compound 8 µM
  relative viability: 0.417
Tosedostat + Trametinib; first compound 0.02 µM
  relative viability: 0.945
Tosedostat + Trametinib; first compound 0.06325 µM
  relative viability: 0.971
Tosedostat + Trametinib; first compound 0.2 µM
  relative viability: 0.925
Tosedostat + Trametinib; first compound 0.6325 µM
  relative viability: 0.894
Tosedostat + Trametinib; first compound 2 µM
  relative viability: 0.915

## NCI-H1395
Tosedostat; 0.02 µM
  relative viability: 0.894
Tosedostat; 0.06325 µM
  relative viability: 0.938
Tosedostat; 0.2 µM
  relative viability: 0.972
Tosedostat; 0.6325 µM
  relative viability: 0.889
Tosedostat; 2 µM
  relative viability: 0.78
[1]; 0.253 µM
  relative viability: 0.823
[1]; 0.8 µM
  relative viability: 0.762
[1]; 2.53 µM
  relative viability: 0.813
[1]; 8 µM
  relative viability: 0.882
[2]; first compound 0.253 µM
  relative viability: 1.17
[2]; first compound 0.8 µM
  relative viability: 0.859
[2]; first compound 2.53 µM
  relative viability: 1
[2]; first compound 8 µM
  relative viability: 1.13
Tosedostat + Trametinib; first compound 0.02 µM
  relative viability: 0.968
Tosedostat + Trametinib; first compound 0.06325 µM
  relative viability: 1.07
Tosedostat + Trametinib; first compound 0.2 µM
  relative viability: 1.12
Tosedostat + Trametinib; first compound 0.6325 µM
  relative viability: 1.05
Tosedostat + Trametinib; first compound 2 µM
  relative viability: 1.06

## SW 1573
Tosedostat; 0.02 µM
  relative viability: 1.07
Tosedostat; 0.06325 µM
  relative viability: 0.95
Tosedostat; 0.2 µM
  relative viability: 0.881
Tosedostat; 0.6325 µM
  relative viability: 0.85
Tosedostat; 2 µM
  relative viability: 0.876
[1]; 0.253 µM
  relative viability: 0.894
[1]; 0.8 µM
  relative viability: 0.981
[1]; 2.53 µM
  relative viability: 0.942
[1]; 8 µM
  relative viability: 0.615
[2]; first compound 0.253 µM
  relative viability: 1.03
[2]; first compound 0.8 µM
  relative viability: 0.84
[2]; first compound 2.53 µM
  relative viability: 0.851
[2]; first compound 8 µM
  relative viability: 0.922
Tosedostat + Trametinib; first compound 0.02 µM
  relative viability: 0.59
Tosedostat + Trametinib; first compound 0.06325 µM
  relative viability: 0.537
Tosedostat + Trametinib; first compound 0.2 µM
  relative viability: 0.553
Tosedostat + Trametinib; first compound 0.6325 µM
  relative viability: 0.472
Tosedostat + Trametinib; first compound 2 µM
  relative viability: 0.505

## CAL-12T
Tosedostat; 0.02 µM
  relative viability: 1.16
Tosedostat; 0.06325 µM
  relative viability: 0.948
Tosedostat; 0.2 µM
  relative viability: 1.03
Tosedostat; 0.6325 µM
  relative viability: 0.892
Tosedostat; 2 µM
  relative viability: 0.784
[1]; 0.253 µM
  relative viability: 0.935
[1]; 0.8 µM
  relative viability: 0.859
[1]; 2.53 µM
  relative viability: 0.821
[1]; 8 µM
  relative viability: 0.742
[2]; first compound 0.253 µM
  relative viability: 1
[2]; first compound 0.8 µM
  relative viability: 1.09
[2]; first compound 2.53 µM
  relative viability: 0.834
[2]; first compound 8 µM
  relative viability: 1
Tosedostat + Trametinib; first compound 0.02 µM
  relative viability: 0.393
Tosedostat + Trametinib; first compound 0.06325 µM
  relative viability: 0.364
Tosedostat + Trametinib; first compound 0.2 µM
  relative viability: 0.339
Tosedostat + Trametinib; first compound 0.6325 µM
  relative viability: 0.394
Tosedostat + Trametinib; first compound 2 µM
  relative viability: 0.325
